Measured values: article PMC10620772, “Design, synthesis, and biological evaluation of new pyrimidine-5-carbonitrile derivatives as novel anti-cancer, dual EGFR^WT/COX-2 inhibitors with docking studies” (RSC Advances, 2023)

Tests used:
Type in all cases: cell-based, human
[1] = tested on: SF-295; assay: NCI60 antitumor screening; conditions: 10 μM one-dose
[2] = tested on: NCI-H322M; assay: NCI60 antitumor screening; conditions: 10 μM one-dose
[3] = tested on: MDA-MB-435; assay: NCI60 antitumor screening; conditions: 10 μM one-dose
[4] = tested on: M14; assay: NCI60 antitumor screening; conditions: 10 μM one-dose
[5] = tested on: PC-3; assay: NCI60 antitumor screening; conditions: 10 μM one-dose
[6] = tested on: SK-MEL-28; assay: NCI60 antitumor screening; conditions: 10 μM one-dose
[7] = tested on: CAKI-1; assay: NCI60 antitumor screening; conditions: 10 μM one-dose
[8] = tested on: UO-31; assay: NCI60 antitumor screening; conditions: 10 μM one-dose
[9] = tested on: NCI60 cell lines panel; assay: NCI60 antitumor screening, full panel; conditions: 10 μM one-dose, mean over NCI60
Description: The National Cancer Institute (NCI), Bethesda, Maryland, United States, selected all of the novel synthesized compounds (2b–d, 3a–d and 4a–p) for in vitro antitumor screening at a single concentration of 10 μM toward the NCI60 cell lines panel covering leukaemia, non-small cell lungs, colon, central nervous system (CNS), melanoma, ovarian, renal, prostate, and breast cancer cells.[32–35] The data were reported as a mean graph of the percent growth of the treated cell lines and expressed as percentage growth inhibition (GI%) in Table 1 and ESI 1.
(2) The molar concentration of the compound responsible for total growth inhibition, also known as total growth inhibition (TGI).
Regarding subpanel selectivity toward certain cancer type, the method of determining a compound's selectivity index is to divide the full panel MG-MID (μM) value by each single subpanel. Values above six indicate high selectivity against the subpanel; moderate selectivity is denoted by values between three and six. Conversely, compounds are termed nonselective if their selectivity is less than three.[30,37]

[10] = tested on: 786–0; assay: NCI60 antitumor screening; conditions: 10 μM one-dose
[11] = tested on: MDA-MB-468; assay: NCI60 antitumor screening; conditions: 10 μM one-dose
[12] = tested on: KM12; assay: NCI60 antitumor screening; conditions: 10 μM one-dose
[13] = tested on: A549/ATCC; assay: NCI60 antitumor screening; conditions: 10 μM one-dose
[14] = tested on: SW-620; assay: NCI60 antitumor screening; conditions: 10 μM one-dose
[15] = tested on: MOLT-4; assay: NCI60 antitumor screening; conditions: 10 μM one-dose
[16] = tested on: U251; assay: NCI60 antitumor screening; conditions: 10 μM one-dose
[17] = tested on: SK-MEL-5; assay: NCI60 antitumor screening; conditions: 10 μM one-dose
[18] = tested on: A498; assay: NCI60 antitumor screening; conditions: 10 μM one-dose
[19] = tested on: SN12C; assay: NCI60 antitumor screening; conditions: 10 μM one-dose
[20] = tested on: OVCAR-3; assay: NCI60 antitumor screening; conditions: 10 μM one-dose
[21] = tested on: SR; assay: NCI60 antitumor screening; conditions: 10 μM one-dose
[22] = tested on: HCT-15; assay: NCI60 antitumor screening; conditions: 10 μM one-dose
[23] = tested on: NCI-H226; assay: NCI60 antitumor screening; conditions: 10 μM one-dose
[24] = tested on: CCRF-CEM; assay: NCI60 antitumor screening; conditions: 10 μM one-dose
[25] = tested on: OVCAR-4; assay: NCI60 antitumor screening; conditions: 10 μM one-dose
[26] = tested on: HT29; assay: NCI60 antitumor screening; conditions: 10 μM one-dose
[27] = tested on: SK-MEL-2; assay: NCI60 antitumor screening; conditions: 10 μM one-dose
[28] = tested on: K-562; assay: NCI60 antitumor screening; conditions: 10 μM one-dose
[29] = tested on: EKVX; assay: NCI60 antitumor screening; conditions: 10 μM one-dose
[30] = tested on: ACHN; assay: NCI60 antitumor screening; conditions: 10 μM one-dose
[31] = tested on: SNB-75; assay: NCI60 antitumor screening; conditions: 10 μM one-dose
[32] = tested on: NCI/ADR-RES; assay: NCI60 antitumor screening; conditions: 10 μM one-dose
[33] = tested on: SNB-19; assay: NCI60 antitumor screening; conditions: 10 μM one-dose
[34] = tested on: MCF7; assay: NCI60 antitumor screening; conditions: 10 μM one-dose
[35] = tested on: HCC-2998; assay: NCI60 antitumor screening; conditions: 10 μM one-dose
[36] = tested on: SK-OV-3; assay: NCI60 antitumor screening; conditions: 10 μM one-dose
[37] = tested on: COLO 205; assay: NCI60 antitumor screening; conditions: 10 μM one-dose
[38] = tested on: UACC-257; assay: NCI60 antitumor screening; conditions: 10 μM one-dose
[39] = tested on: HS 578T; assay: NCI60 antitumor screening; conditions: 10 μM one-dose
[40] = tested on: RPMI-8226; assay: NCI60 antitumor screening; conditions: 10 μM one-dose
[41] = tested on: MALME-3M; assay: NCI60 antitumor screening; conditions: 10 μM one-dose
[42] = tested on: DU-145; assay: NCI60 antitumor screening; conditions: 10 μM one-dose
[43] = tested on: LOX IMVI; assay: NCI60 antitumor screening; conditions: 10 μM one-dose
[44] = tested on: OVCAR-8; assay: NCI60 antitumor screening; conditions: 10 μM one-dose
[45] = tested on: T-47D; assay: NCI60 antitumor screening; conditions: 10 μM one-dose
[46] = tested on: NCI-H460; assay: NCI60 antitumor screening; conditions: 10 μM one-dose
[47] = tested on: HOP-62; assay: NCI60 antitumor screening; conditions: 10 μM one-dose
[48] = tested on: IGROV1; assay: NCI60 antitumor screening; conditions: 10 μM one-dose
[49] = tested on: SF-268; assay: NCI60 antitumor screening; conditions: 10 μM one-dose
[50] = tested on: HL-60(TB); assay: NCI60 antitumor screening; conditions: 10 μM one-dose
[51] = tested on: NCI-H522; assay: NCI60 antitumor screening; conditions: 10 μM one-dose
[52] = tested on: SF-539; assay: NCI60 antitumor screening; conditions: 10 μM one-dose
[53] = tested on: HCT-116; assay: NCI60 antitumor screening; conditions: 10 μM one-dose
[54] = tested on: OVCAR-5; assay: NCI60 antitumor screening; conditions: 10 μM one-dose
[55] = tested on: UACC-62; assay: NCI60 antitumor screening; conditions: 10 μM one-dose
[56] = tested on: BT-549; assay: NCI60 antitumor screening; conditions: 10 μM one-dose
[57] = tested on: HOP-92; assay: NCI60 antitumor screening; conditions: 10 μM one-dose
[58] = tested on: MDA-MB-231/ATCC; assay: NCI60 antitumor screening; conditions: 10 μM one-dose
[59] = tested on: RXF 393; assay: NCI60 antitumor screening; conditions: 10 μM one-dose
[60] = tested on: TK-10; assay: NCI60 antitumor screening; conditions: 10 μM one-dose
[61] = tested on: NCI-H23; assay: NCI60 antitumor screening; conditions: 10 μM one-dose

Cc1ccc(CSc2nc(-c3ccc(F)cc3)c(C#N)c(=O)[nH]2)cc1 [2d, 4-(4-Fluorophenyl)-2-((4-methylbenzyl)thio)-6-oxo-1,6-dihydropyrimidine-5-carbonitrile]
GI% [1]: — (GI% < 10)
GI% [2]: — (GI% < 10)
GI% [3]: — (GI% < 10)
GI% [4]: — (GI% < 10)
GI% [5]: — (GI% < 10)
GI% [6]: — (GI% < 10)
GI% [7]: — (GI% < 10)
GI% [8]: — (GI% < 10)
Mean GI% [9]: — (GI% < 10)
GI% [10]: — (GI% < 10)
GI% [11]: — (GI% < 10)
GI% [12]: — (GI% < 10)
GI% [13]: 10.16%
GI% [14]: — (GI% < 10)
GI% [15]: 11.64%
GI% [16]: — (GI% < 10)
GI% [17]: — (GI% < 10)
GI% [18]: — (GI% < 10)
GI% [19]: — (GI% < 10)
GI% [20]: — (GI% < 10)
GI% [21]: — (GI% < 10)
GI% [22]: 15.77%
GI% [23]: — (GI% < 10)
GI% [24]: — (GI% < 10)
GI% [25]: — (GI% < 10)
GI% [26]: 10.72%
GI% [27]: — (GI% < 10)
GI% [28]: — (GI% < 10)
GI% [29]: — (GI% < 10)
GI% [30]: — (GI% < 10)
GI% [31]: — (GI% < 10)
GI% [32]: — (GI% < 10)
GI% [33]: — (GI% < 10)
GI% [34]: 10.82%
GI% [35]: — (GI% < 10)
GI% [36]: — (GI% < 10)
GI% [37]: — (GI% < 10)
GI% [38]: — (GI% < 10)
GI% [39]: — (GI% < 10)
GI% [40]: — (GI% < 10)
GI% [41]: — (GI% < 10)
GI% [42]: — (GI% < 10)
GI% [43]: — (GI% < 10)
GI% [44]: — (GI% < 10)
GI% [45]: 13.50%
GI% [46]: — (GI% < 10)
GI% [47]: — (GI% < 10)
GI% [48]: — (GI% < 10)
GI% [49]: — (GI% < 10)
GI% [50]: 43.38%
GI% [51]: 12.91%
GI% [52]: — (GI% < 10)
GI% [53]: — (GI% < 10)
GI% [54]: — (GI% < 10)
GI% [55]: — (GI% < 10)
GI% [56]: 15.75%
GI% [57]: — (GI% < 10)
GI% [58]: — (GI% < 10)
GI% [59]: — (GI% < 10)
GI% [60]: — (GI% < 10)
GI% [61]: — (GI% < 10)

N#Cc1c(Cl)nc(SCc2ccccc2)nc1-c1ccc(F)cc1 [3a, 2-(Benzylthio)-4-chloro-6-(4-fluorophenyl) pyrimidine-5-carbonitrile]
GI% [1]: 27.87%
GI% [2]: — (GI% < 10)
GI% [3]: — (GI% < 10)
GI% [4]: — (GI% < 10)
GI% [5]: — (GI% < 10)
GI% [6]: — (GI% < 10)
GI% [7]: 21.66%
GI% [8]: 14.25%
Mean GI% [9]: — (GI% < 10)
GI% [10]: 38.26%
GI% [11]: — (GI% < 10)
GI% [12]: — (GI% < 10)
GI% [13]: 16.44%
GI% [14]: — (GI% < 10)
GI% [15]: — (GI% < 10)
GI% [16]: 39.15%
GI% [17]: — (GI% < 10)
GI% [18]: — (GI% < 10)
GI% [19]: — (GI% < 10)
GI% [20]: — (GI% < 10)
GI% [21]: — (GI% < 10)
GI% [22]: — (GI% < 10)
GI% [23]: 18.61%
GI% [24]: — (GI% < 10)
GI% [25]: 49.74%
GI% [26]: — (GI% < 10)
GI% [27]: — (GI% < 10)
GI% [28]: 11.78%
GI% [29]: — (GI% < 10)
GI% [30]: 45.51%
GI% [31]: — (GI% < 10)
GI% [32]: 20.64%
GI% [33]: 16.70%
GI% [34]: — (GI% < 10)
GI% [35]: — (GI% < 10)
GI% [36]: — (GI% < 10)
GI% [37]: — (GI% < 10)
GI% [38]: — (GI% < 10)
GI% [39]: 16.76%
GI% [40]: — (GI% < 10)
GI% [41]: — (GI% < 10)
GI% [42]: — (GI% < 10)
GI% [43]: — (GI% < 10)
GI% [44]: 27.14%
GI% [45]: 10.38%
GI% [46]: — (GI% < 10)
GI% [47]: 12.77%
GI% [48]: — (GI% < 10)
GI% [49]: 21.56%
GI% [50]: 44.03%
GI% [51]: 16.01%
GI% [52]: 24.06%
GI% [53]: 22.79%
GI% [54]: — (GI% < 10)
GI% [55]: — (GI% < 10)
GI% [56]: 11.73%
GI% [57]: 14.74%
GI% [58]: 21.72%
GI% [59]: 19.19%
GI% [60]: — (GI% < 10)
GI% [61]: — (GI% < 10)
